Test results from ChEMBL document CHEMBL5385872, “Design and syntheses of a bimolecular STING agonist based on the covalent STING antagonist” (Eur J Med Chem, 2023).
Calls of active or inactive are those of the source. The calls are words filed in the database; no cut-off is given here.

What was measured:
[1] = biological target: T1, Stimulator of interferon genes protein (Mus musculus) (UniProt Q3TBT3); assay: Induction of STING-dependent gene expression in mouse BMDC cells assessed as IFNbeta mRNA expression at 20 uM incubated for 8 hrs by qRT-PCR analysis; type: cell-based; details: filed as agonist
T1 sequence (whole entry): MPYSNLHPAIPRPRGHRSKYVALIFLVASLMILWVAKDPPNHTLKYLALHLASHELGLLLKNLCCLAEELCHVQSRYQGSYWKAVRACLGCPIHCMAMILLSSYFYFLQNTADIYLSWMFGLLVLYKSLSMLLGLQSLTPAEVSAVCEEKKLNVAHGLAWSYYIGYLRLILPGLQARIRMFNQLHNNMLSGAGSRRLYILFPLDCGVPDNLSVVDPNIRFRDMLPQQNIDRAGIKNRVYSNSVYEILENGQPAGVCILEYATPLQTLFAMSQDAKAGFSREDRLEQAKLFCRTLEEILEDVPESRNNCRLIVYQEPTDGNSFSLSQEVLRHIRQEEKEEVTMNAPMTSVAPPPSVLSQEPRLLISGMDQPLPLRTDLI

[2] = biological target: Stimulator of interferon genes protein (Homo sapiens) (UniProt Q86WV6); assay: Induction of oligomerization of STING in HEK-293T cells stably expressing STING-Flag ( unknown origin) measured after 4 hrs by immunoprecipitation assay; type: cell-based; details: filed as agonist
[3] = biological target: Stimulator of interferon genes protein (Homo sapiens) (UniProt Q86WV6); assay: Induction of STING-dependent gene expression in human HT-1080 cells assessed as IFNbeta mRNA expression at 20 uM incubated for 8 hrs by qRT-PCR analysis; type: cell-based; details: filed as agonist
[4] = biological target: Stimulator of interferon genes protein (Homo sapiens) (UniProt Q86WV6); assay: Induction of STING-dependent gene expression in human HT-1080 cells assessed as IFNalpha mRNA expression at 20 uM incubated for 8 hrs by qRT-PCR analysis; type: cell-based; details: filed as agonist
[5] = biological target: T1, Stimulator of interferon genes protein (Mus musculus); assay: Agonist activity at STING in mouse BMDM cells assessed as change in TBK1 phosphorylation (initially increase and then decreased) at 20 uM measured after 5 hrs by Western blot analysis; type: cell-based; details: filed as agonist
[6] = biological target: T1, Stimulator of interferon genes protein (Mus musculus); assay: Induction of STING dimerization in mouse BMDM cells assessed as dimerization (initially increase and then decreased) at 2.5 to 20 uM measured after 5 hrs by Western blot analysis; type: cell-based; details: filed as agonist, dose 2.5-20 µM
[7] = biological target: T1, Stimulator of interferon genes protein (Mus musculus); assay: Induction of STING dimerization in mouse BMDC cells assessed as dimerization (initially increase and then decreased) at 2.5 to 20 uM measured after 5 hrs by Western blot analysis; type: cell-based; details: filed as agonist, dose 2.5-20 µM
[8] = biological target: T1, Stimulator of interferon genes protein (Mus musculus); assay: Agonist activity at STING in mouse BMDC cells assessed as change in TBK1 phosphorylation (initially increase and then decreased) at 20 uM measured after 5 hrs by Western blot analysis; type: cell-based; details: filed as agonist
[9] = biological target: T1, Stimulator of interferon genes protein (Mus musculus); assay: Induction of STING-dependent gene expression in mouse BMDC cells assessed as IFNalpha mRNA expression at 20 uM incubated for 8 hrs by qRT-PCR analysis; type: cell-based; details: filed as agonist
[10] = test system: Mus musculus; assay: Induction of immune-activation effect in wild type female BALB/c mouse assessed as increase in serum IFNbeta level at 15 to 30 mg/kg, ip measured after 24 to 48 hrs by ELISA relative to control; type: functional, organism-based; details: dose 15-30 mg/kg, time 24-48 hrs
[11] = test system: Mus musculus; assay: Induction of immune-activation effect in wild type female BALB/c mouse assessed as increase in serum TNFalpha level at 15 to 30 mg/kg, ip measured after 24 to 48 hrs by ELISA relative to control; type: functional, organism-based; details: dose 15-30 mg/kg, time 24-48 hrs

Stimulator of interferon genes protein (Homo sapiens), sequence (Q86WV6 whole entry): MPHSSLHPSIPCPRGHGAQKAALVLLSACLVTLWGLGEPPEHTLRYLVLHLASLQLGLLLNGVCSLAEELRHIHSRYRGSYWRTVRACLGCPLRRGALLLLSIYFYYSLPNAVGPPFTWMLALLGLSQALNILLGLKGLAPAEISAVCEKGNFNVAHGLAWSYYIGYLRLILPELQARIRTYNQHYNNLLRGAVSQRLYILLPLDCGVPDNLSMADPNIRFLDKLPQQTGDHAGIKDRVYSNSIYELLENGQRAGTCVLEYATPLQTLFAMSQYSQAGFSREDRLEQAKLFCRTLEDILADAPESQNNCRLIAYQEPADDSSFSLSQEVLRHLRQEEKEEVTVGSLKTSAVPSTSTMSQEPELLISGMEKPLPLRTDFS

Activity [1]	Activity [2]	Activity [3]	Activity [4]	Activity [5]	Activity [6]	Activity [7]	Activity [8]	Activity [9]	Structure (SMILES)	Activity [10]	Activity [11]
Active	Active	Active	Active	Active	Active	Active	Active	Active	O=C(NCCCCCCCCCNC(=O)c1ccc([N+](=O)[O-])o1)c1ccc([N+](=O)[O-])o1		
Active	Active	Active	Active	Active	Active	Active	Active	Active	O=C(NCCCCCCCCNC(=O)c1ccc([N+](=O)[O-])o1)c1ccc([N+](=O)[O-])o1	Active	Active
